The source of these data is ChEMBL document CHEMBL5107977, “Inhibition of MARK4 by serotonin as an attractive therapeutic approach to combat Alzheimer's disease and neuroinflammation” (RSC Med Chem, 2022).

The target in assay [1] is T1, MAP/microtubule affinity-regulating kinase 4 (Homo sapiens) (UniProt Q96L34).
T1 sequence (whole entry): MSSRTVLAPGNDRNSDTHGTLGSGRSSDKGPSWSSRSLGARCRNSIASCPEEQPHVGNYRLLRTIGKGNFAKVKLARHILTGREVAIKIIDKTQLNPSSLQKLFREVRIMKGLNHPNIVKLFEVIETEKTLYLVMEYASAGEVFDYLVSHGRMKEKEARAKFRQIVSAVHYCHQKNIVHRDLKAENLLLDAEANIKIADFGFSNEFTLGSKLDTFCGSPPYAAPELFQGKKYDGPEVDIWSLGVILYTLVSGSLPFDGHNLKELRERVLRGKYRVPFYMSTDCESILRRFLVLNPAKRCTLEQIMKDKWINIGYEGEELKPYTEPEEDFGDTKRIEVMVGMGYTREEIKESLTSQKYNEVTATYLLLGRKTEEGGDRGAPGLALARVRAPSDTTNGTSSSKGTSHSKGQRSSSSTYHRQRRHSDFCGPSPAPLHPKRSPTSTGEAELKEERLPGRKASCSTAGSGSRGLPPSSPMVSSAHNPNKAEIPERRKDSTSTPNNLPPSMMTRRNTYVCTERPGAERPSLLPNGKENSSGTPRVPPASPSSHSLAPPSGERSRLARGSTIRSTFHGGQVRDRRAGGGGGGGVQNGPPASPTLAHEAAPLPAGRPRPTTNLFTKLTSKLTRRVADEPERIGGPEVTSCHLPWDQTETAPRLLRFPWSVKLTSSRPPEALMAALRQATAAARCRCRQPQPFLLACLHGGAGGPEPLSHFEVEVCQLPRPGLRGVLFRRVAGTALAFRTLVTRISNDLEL
Kind of assay: Binding affinity to MARK4 (unknown origin) assessed as Gibbs free energy change by MM-GBSA method.

Assay [2] addresses T2, MAP/microtubule affinity-regulating kinase 4 (Homo sapiens, UniProt Q96L34).
T2 sequence (Q96L34 whole entry): T1 sequence (whole entry)
Briefly: Inhibition of MARK4 (unknown origin) ATPase activity using ATP as substrate incubated for 1.5 hr in presence of MgCl2 by Biomol green reagent based ELISA. A general note: An ELISA detects its analyte on a solid surface through an enzyme-linked reagent.

Assay [3] has as its target T1, MAP/microtubule affinity-regulating kinase 4 (Homo sapiens). Briefly: Binding affinity to MARK4 (unknown origin) assessed as association constant by isothermal titration calorimetry. Background: In ITC the heat of successive injections is recorded.
Assay [4] has the same target. Briefly: Binding affinity to MARK4 (unknown origin) assessed as binding constant by fluorescence binding assay based spectroscopy.
Assay [5] shares this target. Kind of assay: Binding affinity to MARK4 (unknown origin) assessed as change in entropy by isothermal titration calorimetry.
Assay [6] shares this target. Kind of assay: Binding affinity to MARK4 (unknown origin) assessed as change in enthalpy by isothermal titration calorimetry.

On to `NCCc1c[nH]c2ccc(O)cc12` [SEROTONIN], for which the deltaG in assay [1] was -32.8 kcal/mol. The IC50 (in general, the concentration that inhibits the measured activity by half) in assay [2] turned out to be 2990 nM. Moreover, the Ka in assay [3] is 148 10^4/M. For the same molecule, in assay [4], the K was 0.3 10^6/M. Besides, the deltaS in assay [5] was -286 cal/mol/deg. Further, the deltaH in assay [6] was -88.2 kcal/mol.
